According to PubChem BioAssay AID248 (DTP/NCI, 2004):
Inconclusive results and toxic doses are left out. Cut-off read from the data, not from the text of the source: active = T/C of 150% or more; inactive = T/C below 125%.

System: L1210 leukemia ip in BDF1 mice, survival T/C
Assay: NCI In Vivo Anticancer Drug Screen. Data for tumor model L1210 Leukemia (intraperitoneal) in B6D2F1 (BDF1) mice
Conditions: endpoint: mean survival time, schedule: Q01DX001 (ip), vehicle: other, higher = longer survival
Outline: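 Survival endpoint. Drug-treated group vs vehicle group, expressed as T divided by C. Tumor passaged by transplantation.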

Measured: T/C

CNC(=S)N/N=C/c1cc(Cl)cc(Cl)c1
inactive: dose: 100.0 mg/kg/injection 102 % of control | dose: 200.0 mg/kg/injection 102 % of control | dose: 400.0 mg/kg/injection 98 % of control
